Converted amounts (≈) assume the structure as drawn.
Experiments:
B. subtilis 168 [1] = system: B. subtilis 168
S. aureus DSM 20231 [2] = system: S. aureus DSM 20231
S. aureus Newman [3] = system: S. aureus Newman
S. pneumoniae D39V [4] = system: S. pneumoniae D39V
B. subtilis 168 [5] = assay: fitness (endpoint OD595 vs no drug) (fraction); higher = more growth
In short: (§1)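 Cultures at OD595 0.01 were dispensed into 384-well plates in TSB, LB Lennox or CY and incubated at 37 °C. Every 30 min for 14 h, OD595 was read and corrected by the first reading. Fitness is the optical density at entry into stationary phase relative to the robust mean of no-drug control wells, capped at 1.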

S. aureus DSM 20231 [6] = assay: as above
In short: as §1

S. aureus Newman [7] = assay: as above
In short: as §1

S. pneumoniae D39V [8] = assay: as above
In short: as §1

CNC(C)C1CCC(N)C(OC2C(N)CC(N)C(OC3OCC(C)(O)C(NC)C3O)C2O)O1 (stereo not given) [Gentamicin]
main component drawn
Settings	MIC [µg/mL]
B. subtilis 168 [1]	0.25 (≈ 0.523 µM)
S. aureus DSM 20231 [2]	2 (≈ 4.19 µM)
S. aureus Newman [3]	2 (≈ 4.19 µM)
S. pneumoniae D39V [4]	18 (≈ 37.7 µM)

main component drawn
Settings	fitness
B. subtilis 168 [5], 0.0625 µg/mL	0.887
B. subtilis 168 [5], 0.125 µg/mL	0.131
B. subtilis 168 [5], 0.25 µg/mL	0.0542
S. aureus DSM 20231 [6], 0.5 µg/mL	≥ 1
S. aureus DSM 20231 [6], 1 µg/mL	≥ 1
S. aureus DSM 20231 [6], 2 µg/mL	0.984
S. aureus DSM 20231 [6], 4 µg/mL	0.129
S. aureus Newman [7], 0.375 µg/mL	≥ 1
S. aureus Newman [7], 0.5 µg/mL	0.996
S. aureus Newman [7], 0.75 µg/mL	≥ 1
S. aureus Newman [7], 1 µg/mL	0.992
S. aureus Newman [7], 1.5 µg/mL	0.583
S. aureus Newman [7], 2 µg/mL	0.999
S. aureus Newman [7], 4 µg/mL	0.302
S. pneumoniae D39V [8], 2 µg/mL	1
S. pneumoniae D39V [8], 4 µg/mL	0.986
S. pneumoniae D39V [8], 8 µg/mL	0.962

C[n+]1ccc(-c2cc[n+](C)cc2)cc1 [Paraquat]
Settings	MIC [µg/mL]
B. subtilis 168 [1]	50
S. aureus DSM 20231 [2]	50
S. aureus Newman [3]	50
S. pneumoniae D39V [4]	10

fitness
Settings	1.25 µg/mL	1.5 µg/mL	2.5 µg/mL	3 µg/mL	5 µg/mL	6 µg/mL
B. subtilis 168 [5]	0.912	–	0.899	–	0.848	–
S. aureus DSM 20231 [6]	≥ 1	–	0.99	–	0.988	–
S. aureus Newman [7]	0.986	–	0.944	–	0.94	–
S. pneumoniae D39V [8]	–	0.992	–	0.993	–	0.965

Cn1c2cccc(=O)c-2nc2ccccc21 [Pyocyanin]
Settings	MIC [µg/mL]
B. subtilis 168 [1]	5 (≈ 23.8 µM)
S. aureus DSM 20231 [2]	5 (≈ 23.8 µM)
S. aureus Newman [3]	5 (≈ 23.8 µM)
S. pneumoniae D39V [4]	1.44 (≈ 6.85 µM)

fitness
Settings	0.325 µg/mL	0.65 µg/mL	1.25 µg/mL	1.3 µg/mL	2.5 µg/mL	5 µg/mL
B. subtilis 168 [5]	–	–	0.886	–	0.841	0.708
S. aureus DSM 20231 [6]	–	–	0.997	–	0.892	0.59
S. aureus Newman [7]	–	–	0.896	–	0.843	0.399
S. pneumoniae D39V [8]	≥ 1	0.991	–	0.835	–	–

CN(N=O)C(=O)N[C@@H](C=O)[C@@H](O)[C@H](O)[C@H](O)CO [Streptozotocin]
Settings	MIC [µg/mL]
B. subtilis 168 [1]	0.7 (≈ 2.64 µM)
S. aureus DSM 20231 [2]	0.8 (≈ 3.02 µM)
S. aureus Newman [3]	0.8 (≈ 3.02 µM)
S. pneumoniae D39V [4]	5 (≈ 18.9 µM)

fitness
Settings	0.15 µg/mL	0.3 µg/mL	0.6 µg/mL	1.2 µg/mL	2.4 µg/mL	4.8 µg/mL
B. subtilis 168 [5]	0.987	0.961	0.99	–	–	–
S. aureus DSM 20231 [6]	0.891	0.843	0.756	–	–	–
S. aureus Newman [7]	0.852	0.735	0.524	–	–	–
S. pneumoniae D39V [8]	–	–	–	0.96	0.936	0.975

Cc1cc(NS(=O)(=O)c2ccc(N)cc2)no1 [Sulfamethoxazol]
Settings	MIC [µg/mL]
B. subtilis 168 [1]	> 16
S. aureus DSM 20231 [2]	> 16
S. aureus Newman [3]	> 16
S. pneumoniae D39V [4]	16 (≈ 63.2 µM)

fitness
Settings	B. subtilis 168 [5]	S. aureus DSM 20231 [6]	S. aureus Newman [7]	S. pneumoniae D39V [8]
1 µg/mL	0.975	0.976	0.968	0.954
2 µg/mL	0.948	0.946	0.984	0.984
4 µg/mL	0.915	0.943	0.978	0.987
